# Laboratory results as given in patent publication US10849901B2, “Arf6 inhibitors and methods of synthesis and use thereof” (Navigen, Inc., priority 2014, dated 2020).
# Read-outs that look alike come from different tables or passages of the source.
# Tests used:
# [1] = tested on: collagen-induced arthritis; assay: Mouse model of collagen-induced arthritis; type: in vivo; conditions: mice, 14 days; Compound 4 10, 30, 60 mg/kg BID; Enbrel 10 mg/kg QD
# Method: In the experiment, mice were immunized with collagen on Days 1 and 21, and randomized to treatment groups on or around Day 28, then subject to fourteen days of treatment with a test compound. Vehicle (●), Compound 4 at 10 mg/kg (▴), Compound 4 at 30 mg/kg (▾), Compound 4 at 60 mg/kg (♦), or Enbrel (▪; 10 mg/kg) was given. Compound 4 was given twice daily (BID); Enbrel was given once daily (QD); and vehicle was given twice daily (BID).
# Arf6 = Arf6 (Homo sapiens (Human), UniProt P62330); assay: Fluorometric assay for Arf6 nucleotide exchange catalyzed by ARNO Sec7 domain (GTP-BODIPY FL); type: biochemical; conditions: for inhibition at 10 µM: 20 nM assay, 10 μM concentration
# Chain of Arf6 (P62330 14-175): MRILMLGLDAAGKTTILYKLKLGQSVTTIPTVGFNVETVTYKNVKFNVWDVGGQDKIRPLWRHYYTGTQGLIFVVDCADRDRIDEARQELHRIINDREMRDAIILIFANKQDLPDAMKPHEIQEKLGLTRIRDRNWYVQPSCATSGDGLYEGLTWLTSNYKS
# Method: FIGS. 1A-1D: Fluorometric high throughput assay for Arf6 nucleotide exchange catalyzed by ARNO Sec7 domain. FIG. 1A: Principle of the assay. FIG. 1B: SDS-PAGE analysis of N-terminally His-tagged Arf6(14-175) and ARNO(50-255) purified from the E. coli cultures by immobilized metal affinity chromatography. FIG. 1C: Correlation between signal intensity and ARNO concentration. The assay was performed using 50 mM Tris-HCl, pH 7.5, 1 mM MgCl2, 0.01% TX-100, 1% DMSO, 50 nM GTP-BODIPY FL, supplemented with ARNO-Sec7 at indicated concentrations in the absence or in the presence of 0.2 μM Arf6-GDP. Fluorescence intensities were monitored using a Synergy 4 plate reader (BioTek) at the excitation and emission wavelengths of 490 nm and 520 nm, respectively. FIG. 1D: Time course of apparent inhibitory potency of GDP. The assay was performed in automated mode using a Matrix PlateMate liquid handler.
# The primary biochemical assay uses a fluorometric assay for monitoring the replacement of bound nucleotide with a fluorogenic GTP derivative bearing a BODIPY FL moiety, allowing for the identification of compounds that can inhibit this exchange (see FIG. 1A). In certain embodiments, the methods disclosed herein may exploit the reduction of intramolecular fluorescence quenching of the modified nucleotide upon its binding to the target protein (see, e.g., McEwen D P, Gee K R, Kang H C, Neubig R R. Fluorescent BODIPY-GTP analogs: real-time measurement of nucleotide binding to G proteins. Anal Biochem. 2001 Apr. 1; 291(1): 109-17).
# The fluorometric assay formatted for 96-well microtiter plates has passed quality control based on the following criteria: i) S/B ratio of 4-fold and Z′-factor of 0.61; ii) linear correlation between signal intensity and ARNO concentration (see FIG. 1C); iii) sufficiently reproducible inhibitory effects of the reference inhibitor GDP for assay durations up to at least 1 hour (see FIG. 1D); and iv) lack of apparent fluorescence quenchers among 400 randomly selected compounds. The assay is amenable to automation with a throughput of approximately 5,000 data points per 8 hours.
# [2] = tested on: oxygen-induced retinopathy; assay: Oxygen-induced retinopathy (OIR) in mice; type: in vivo; conditions: 5 μg intraocular Days 12 and 15, measured Day 17
# Method: In the experiment, mice pups were placed in a 75% oxygen environment from Days 5-12. The mice were returned to a normal oxygen environment on Day 13. The test compounds were administered (5 μg) by intraocular injection on Days 12 and 15, and the area of neovascularization was measured on Day 17. Compound 38 was compared with SU4312 in oxygen-induced retinopathy (OIR) in mice (see FIG. 11). […]
# [3] = tested on: VEGF-induced retinal permeability; assay: VEGF-induced retinal permeability in mice (Evans blue dye); type: in vivo
# Method: (§1) In the experiment, VEGF (50 ng) and either Compound 38 or 65 (500 ng) or NAV-3745 (500 ng) were given to mice in a single intraocular injection. Evans blue dye (EBD) was given via IV approximately 6 hours after the injection, and the retinas were harvested after an additional 2 hours. Retinal permeability was measured on Day 2 after an overnight extraction of EBD in formamide, at OD 620-740 nm.
# as §1, with “the test compound” for “either Compound 38 or 65 (500 ng) or NAV-3745 (500 ng)”, “injection. Avastin was given at a dose of 20 μg, Compound 38 at either 50 ng or 500 ng (as noted in FIG. 7), and SU4312 at 5 μg. As with the previous experiment,” for “injection.”
# [4] = tested on: LPS-induced acute lung injury; assay: LPS-induced acute lung injury in mice (BALF analysis); type: in vivo; conditions: 24 hours after LPS, Compound 38 60 mg/kg, dexamethasone 5 mg/kg
# Method: In the experiment, LPS (5 mg/kg) was given by intra-tracheal instillation. Dexamethasone (5 mg/kg) was given as a positive control 2 hours after the LPS. Bronchoalveolar fluid (BALF) was analyzed for cell count and protein 24 hours after the LPS.
# [5] = tested on: VEGF-induced retinal permeability; assay: VEGF-induced retinal permeability in rats (Evans blue dye); type: in vivo; conditions: rat, not told, ip, 60 mg/kg
# Method: In the experiment, VEGF (500 ng) and Avastin (200 μg) were given to rats in a single intraocular injection on Day 1. Compound 38 (60 mg/kg) was administered by IP injection 1 hour prior to VEGF on Day 1. Rats were given Evans blue dye (EBD) via IV infusion on Day 2, and the retinas were harvested after an additional 1.5 hours. The retinas were dissected and incubated overnight in formamide. Vascular leak was calculated on Day 3.
# [6] = 20 nM Arf6 assay, read-out: IC50 (μM) 20 nM Arf6
# [7] = 200 nM Arf6 assay, read-out: IC50 (μM) 200 nM Arf6
compound,measurement,setting,value
O=c1cc(-c2cccc(Oc3ccccc3)c2)[nH]c2c(-c3ccc(Cl)c(Cl)c3)c(C(F)(F)F)nn12 [Compound 4],inflammation as measured by the arthritic index,[1],reduced inflammation
same,IC50,Arf6; [6],0.52 µM
same,IC50,Arf6; [7],0.46 µM
same,area of neovascularization,[2],reduced the area of neovascularization
CCOc1ccc(-c2nn(-c3ccccc3)cc2/C=C2\SC(=S)N(CCC(=O)O)C2=O)cc1C [Compound 116],IC50,Arf6; [7],1.4 µM
N#Cc1c(SCc2cc(=O)[nH]c(=O)[nH]2)nc2c(c1-c1ccccc1)CC/C2=C\c1ccccc1 [Compound 117],IC50,Arf6; [7],1.5 µM
O=C1NC(=S)N(c2cccc(Cl)c2)C(=O)/C1=C/c1cccn1-c1ccc(Cl)cc1 [Compound 118],IC50,"Arf6; IC50 (μM) 200 nM Arf6, 200 nM Arf6 assay",1.8 µM
O=C(Nc1cc(Cl)c(-c2cccc3cccnc23)c(Cl)c1)c1cc(Cl)cc(Br)c1O [Compound 119],IC50,Arf6; [6],2.1 µM
O=c1nc(/C=C/c2ccc(-c3cc(Cl)cc(Cl)c3)o2)cc(C(F)(F)F)[nH]1 [Compound 120],IC50,Arf6; [6],3.4 µM
O=C1NC(=S)S/C1=C/c1ccc(N2N=C(c3ccccc3)CC2c2ccccc2)cc1 (stereo not shown) [Compound 121],IC50,Arf6; [6],3.7 µM
Cc1cccc(-n2c(/C=C/c3cccnc3)nc3ccccc3c2=O)c1 [Compound 122],IC50,Arf6; [7],4.7 µM
Nc1scc2c(-c3nnc(Nc4ccccc4)s3)nn(-c3ccc([N+](=O)[O-])cc3)c(=O)c12 [Compound 123],IC50,Arf6; [6],5.1 µM
O=C1NC(=O)c2ccccc2/C1=C/c1cnn(Cc2ccccc2)c1 [Compound 124],IC50,Arf6; [6],5.4 µM
COc1ccc(C(=O)Nc2cccc(/C=C3\C(=O)NC(=O)c4ccccc43)c2)cc1 [Compound 125],IC50,Arf6; [6],6.5 µM
CC(C)(C)c1ccc(S(=O)(=O)Nc2ccc(O)c3ccccc23)cc1 [Compound 126],IC50,Arf6; [7],6.7 µM
O=C(O)c1ccc(C2Nc3c(Br)cccc3C3C=CCC32)cc1 (stereo not shown) [Compound 127],IC50,Arf6; [7],8 µM
Cn1cc(/C=C(\CC(=O)O)C2Nc3ccccc3S2)c(-c2ccc3c(c2)OCCCO3)n1 (stereo not shown) [Compound 128],IC50,Arf6; [6],8.4 µM
O=c1c2c(-c3ccc(Cl)cc3)csc2[nH]c(=S)n1Cc1ccccc1 [Compound 129],IC50,Arf6; [7],9.7 µM
Cc1ccc(C(=O)OCc2cc(=O)n3cc(Br)ccc3n2)cn1 [Compound 130],IC50,Arf6; [6],9.9 µM
Cc1ccn2c(=O)cc(CSc3nc(C)cc(=O)[nH]3)nc2c1 [Compound 131],IC50,Arf6; [6],11 µM
CCCc1cc(=O)[nH]c(SCc2cc(=O)n3cc(Br)ccc3n2)n1 [Compound 132],IC50,Arf6; [6],30 µM
Cn1c(N)c(C(=O)COC(=O)c2ccccc2SCc2ccc(C#N)cc2)c(=O)[nH]c1=O [Compound 134],IC50,Arf6; [6],13 µM
O=C1/C(=N/Nc2nc3ccccc3s2)C(c2ccccc2)=NN1c1nc(-c2ccccc2)cs1 [Compound 135],IC50,Arf6; [6],16 µM
Fc1ccc(C2CC(c3cccs3)=NN2c2nc(-c3ccc(-c4ccccc4)cc3)cs2)cc1 (stereo not shown) [Compound 136],IC50,Arf6; [6],16 µM
CSc1nnc2c(n1)OC(c1cc(O)ccc1[N+](=O)[O-])Nc1ccccc1-2 (stereo not shown) [Compound 137],IC50,Arf6; [6],17 µM
O=c1[nH]c(CSc2ncnc3sccc23)nc2ccsc12 [Compound 138],IC50,Arf6; [6],17 µM
O=C(COC(=O)c1cc2ccccc2[nH]1)NCCSc1ccc(Cl)cc1 [Compound 139],IC50,Arf6; [6],19 µM
O=c1c(-c2cccc3ccccc23)c(C(F)(F)F)oc2cc(O)ccc12 [Compound 140],IC50,Arf6; [7],29 µM
O=C1c2ccccc2C(=O)C1C1=NC2c3ccccc3OC2S1 (stereo not shown) [Compound 141],IC50,Arf6; [7],31 µM
Fc1ccc(C2=CCN(c3nc(-c4ccncc4)nc4c3CNC4)CC2)cc1 [Compound 142],IC50,Arf6; [6],1.2 µM
c1nc(C2CCCNC2)cc(N2C[C@@H]3C[C@@H]4C[C@H](C3)N[C@@H]2C4)n1 (stereo partly shown) [Compound 143],inhibition at 10 µM,Arf6,~31%
CCCCC1CCCN1c1cc(C2CCNCC2)ncn1 (stereo not shown) [Compound 144],inhibition at 10 µM,Arf6,~35%
"COc1ccc(-c2c(Cc3ccccc3)nn3c(=O)cc(C)[nH]c23)cc1 [NAV-3745, reference compound]",VEGF-induced retinal permeability,"[3]; mice, 500 ng single intraocular injection with VEGF 50 ng (FIG. 6)",no effect
"C[C@@H]1C[C@H]2[C@@H]3CCC4=CC(=O)C=C[C@]4(C)[C@@]3(F)[C@@H](O)C[C@]2(C)[C@@]1(O)C(=O)CO [dexamethasone, Dexamethasone, reference compound]",number of cells in the lung fluid (BALF),[4],reduced the number of cells
same,protein concentration in the lung fluid (BALF),[4],reduced
Avastin,VEGF-induced retinal permeability,"[3]; mouse, not told",reduced VEGF-induced retinal permeability
same,VEGF-induced retinal permeability,[5],reduced VEGF-induced retinal permeability
Enbrel,inflammation as measured by the arthritic index,[1],reduced inflammation
SU4312 [reference compound],VEGF-induced retinal permeability,"[3]; mouse, not told",little effect
same,area of neovascularization,[2],reduced the area of neovascularization
